In this experiment the test system is 186277-243-T-J2-PDC complex spheroid viability. In words: Anticancer human tumor 186277-243-T-J2-PDC patient-derived colon adenocarcinoma cell line growth inhibition [POLQ]. The settings on record: for viability, T/C: stronger effect = lower value. How it is done:
Multicellular complex tumor spheroid response to Polymerase (POL) inhibitors (novobiocin, ART-558, RP6685) in combination with a variety of drugs and investigational agents in selected tumor cell lines
The POL inhibitors (novobiocin, ART-558, and RP6685) were evaluated both individually and in combination with standard of care and investigational anticancer small molecules within a complex spheroid model of solid tumors. . Complex spheroids include a stromal component modeled by human endothelial cells (HUVEC) and fibroblasts modeled by human mesenchymal stem cells (MSCs). The concentration ranges selected for each drug and investigational agent were based upon clinically achievable concentrations if the clinical Cmax of the agent was known.
Compounds. The drugs and investigational agents: novobiocin (NSC847541), ART-558 (NSC835418), RP-6685 (NSC848927), peposertib (NSC802822), ceralasertib (NSC780249), elimusertib (NSC800525), camonsertib (NSC841442), AZD-1390 (NSC803789), olaparib (NSC753686), talazoparib (NSC767125), rucaparib (NSC756644), sotorasib (NSC818433), MRTX-1133 (NSC836407), SN-38 (NSC673596), topotecan (NSC609699), epotoside (NSC141540), doxorubicin (NSC123127), gemcitabine (NSC613327), 5-fluorouracil (NSC19893), paclitaxel (NSC125973), vemurafenib (NSC761431), MSA-2 (NSC828583), SN-011 (NSC837082), adavosertib (NSC754352), prexasertib (NSC758257), carboplatin (NSC241240) and oxaliplatin (NSC266046), were obtained from the National Cancer Institute (NCI) Developmental Therapeutics Program Chemical Repository (21). The FDA-approved anticancer drug set is available from the Developmental Therapeutics Program at https://dtp.cancer.gov/organization/dscb/obtaining/. […] The stock solutions were prepared in dimethyl sulfoxide (DMSO, Sigma-Aldrich, St. Louis, MO, cat. D2650), except for the platinum compounds which were prepared in saline (Quality Biological, Gaithersburg, MD, cat. 114-055-101), at 800-fold the tested concentration and stored at -70 degrees C prior to their use. All drugs and investigational agents were tested over a range starting from a high concentration at or near the clinical Cmax and decreasing in half-log increments. If the clinical Cmax for an agent had not been determined, the highest concentration tested was 10 microM, except for SN-38, which was tested at a high concentration of 1 microM.
Cell Culture. All cells were maintained in an incubator at 37 degrees C and 5% CO2 with 95% humidity. The PDC lines were cultured according to standard operating procedures established by the NCI PDMR (https://pdmr.cancer.gov). Table 3 of the manuscript, lists the cell lines along with the number of the three cell types plated to form the mct-spheroids and media for tumor cell growth. After thawing, all PDC lines, except 997537-175-T-J1-PDC and 415267-285-R-J2-PDC, were cultured in Matrigel-coated flasks prepared with a working solution of 1X Ham's F-12 nutrient mix, without supplementation (Thermo Fisher Scientific, cat. 11765054), 100 U/mL penicillin-streptomycin (Thermo Fisher Scientific, cat. 15140122), and 2.5% Matrigel (Corning Inc., Corning, NY, cat. 354248) for the first three passages. The two PDC lines 997537-175-T-J1-PDC and 415267-285-R-J2-PDC were cultured on uncoated flasks. The 857933-349-R-J2-PDC line was cultured in 6C/Colon 1B media containing advanced DMEM/F-12 (Thermo Fisher Scientific, cat. 12634028), 10 mM HEPES (Thermo Fisher Scientific, cat. 15630080), 1X GlutaMAX supplement (Thermo Fisher Scientific, cat. 35050061), 0.1 mg/mL primocin (InvivoGen, San Diego, CA, cat. ant-pm-2), 10% defined fetal bovine serum, heat inactivated (HyClone Laboratories Inc., Logan, UT, cat. SH30070.03HI), 50% L-WRN conditioned media (ATCC, cat. CRL-3276), 1.25 mM N-Acetyl-L-cysteine (Sigma-Aldrich, cat. A9165), 10 mM nicotinamide (Sigma-Aldrich, cat. N0636), 1X B-27 supplement (Thermo Fisher Scientific, cat. 17504044), 1X N-2 supplement (Thermo Fisher Scientific, cat. […]

Drawing on PubChem BioAssay AID1963854 (Molecular Pharmacology Branch, DTP, NCI, 2024), this text covers IC50 and viability, T/C for nine compounds.

Several values for one entry are separate records, joined by “and”; a condition that tells them apart may be missing. Equal values may be shown once.
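Further: spheroids exposed to compounds for seven days.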
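Wherever viability, T/C is given: 100% = DMSO vehicle control viability.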

In the case of `Cn1ncnc1[C@H]1c2n[nH]c(=O)c3cc(F)cc(c23)N[C@@H]1c1ccc(F)cc1` + Cc1cccc(N(C)C(=O)C2C(O)CCN2c2nc(C)cc(C(F)(F)F)c2C#N)c1, the IC50 runs as follows: (curve of first compound, second compound 0.0316 µM) over 100 nM; (curve of first compound, second compound 0.1 µM) over 100 nM; (curve of first compound, second compound 0.316 µM) over 100 nM; (curve of first compound, second compound 1 µM) over 100 nM; (curve of first compound, second compound 3.16 µM) over 100 nM; (curve of first compound, second compound 10 µM) over 100 nM. Further, the viability, T/C runs as follows: (second compound 0.0316 µM, first compound 0.000316 µM) 101%; (second compound 0.0316 µM, first compound 0.001 µM) 102%; (second compound 0.0316 µM, first compound 0.00316 µM) 104%; (second compound 0.0316 µM, first compound 0.01 µM) 106%; (second compound 0.0316 µM, first compound 0.0316 µM) 118%; (second compound 0.0316 µM, first compound 0.1 µM) 120%. Moreover, the viability, T/C is 87.9% (second compound 0.1 µM, first compound 0.000316 µM); 99.4% (second compound 0.1 µM, first compound 0.001 µM); 113% (second compound 0.1 µM, first compound 0.00316 µM); 106% (second compound 0.1 µM, first compound 0.01 µM); 113% (second compound 0.1 µM, first compound 0.0316 µM); 119% (second compound 0.1 µM, first compound 0.1 µM). Besides, the viability, T/C was 90.3% (second compound 0.316 µM, first compound 0.000316 µM); 92.6% (second compound 0.316 µM, first compound 0.001 µM); 102% (second compound 0.316 µM, first compound 0.00316 µM); 115% (second compound 0.316 µM, first compound 0.01 µM); 145% (second compound 0.316 µM, first compound 0.0316 µM); 122% (second compound 0.316 µM, first compound 0.1 µM). Further, the viability, T/C (second compound 1 µM, first compound 0.000316 µM) is 89%; the viability, T/C (second compound 1 µM, first compound 0.001 µM) was 105%; the viability, T/C (second compound 1 µM, first compound 0.00316 µM) is 107%; the viability, T/C (second compound 1 µM, first compound 0.01 µM) was 117%; the viability, T/C (second compound 1 µM, first compound 0.0316 µM) is 119%; the viability, T/C (second compound 1 µM, first compound 0.1 µM) was 111%. For the same compound, the viability, T/C by setting is: (second compound 3.16 µM, first compound 0.000316 µM) 101%; (second compound 3.16 µM, first compound 0.001 µM) 106%; (second compound 3.16 µM, first compound 0.00316 µM) 111%; (second compound 3.16 µM, first compound 0.01 µM) 113%; (second compound 3.16 µM, first compound 0.0316 µM) 103%; (second compound 3.16 µM, first compound 0.1 µM) 105%. The viability, T/C by setting is: (second compound 10 µM, first compound 0.000316 µM) 99.5%; (second compound 10 µM, first compound 0.001 µM) 92.8%; (second compound 10 µM, first compound 0.00316 µM) 95.8%; (second compound 10 µM, first compound 0.01 µM) 116%; (second compound 10 µM, first compound 0.0316 µM) 113%; (second compound 10 µM, first compound 0.1 µM) 113%.
Turning to `C#Cc1c(F)ccc2cc(O)cc(-c3ncc4c(N5CC6CCC(C5)N6)nc(OCC56CCCN5CC(F)C6)nc4c3F)c12` (stereo unspecified), the viability, T/C is 85.1% and 95.6% and 68.7% (compound 0.0316 µM); 53.8% and 92.9% and 36.9% (compound 0.1 µM); 20.1% and 56% and 19.9% (compound 0.316 µM); 12% and 28% and 9.47% (compound 1 µM); 7.06% and 18.8% and 5.67% (compound 3.16 µM); 5.14% and 11.6% and 4.6% (compound 10 µM). Also, the IC50 (curve of compound) is 113 nM and 427 nM and 62.6 nM.
For `CCCS(=O)(=O)Nc1ccc(F)c(C(=O)c2c[nH]c3ncc(-c4ccc(Cl)cc4)cc23)c1F`, the viability, T/C (compound 0.0316 µM) is 93.5% and 97.3% and 96.7%; the viability, T/C (compound 0.1 µM) is 80.9% and 85.4% and 97.5%; the viability, T/C (compound 0.316 µM) is 92.2% and 94.7% and 93%; the viability, T/C (compound 1 µM) is 90.7% and 79.6% and 82.2%; the viability, T/C (compound 3.16 µM) is 82.9% and 100% and 89.3%; the viability, T/C (compound 10 µM) was 64.4% and 59.1% and 42.5%. Moreover, the IC50 (curve of compound) is > 10000 nM and 8340 nM.
As to `O=c1[nH]cc(F)c(=O)[nH]1`, the viability, T/C was 88.9% and 104% and 92.7% (compound 0.0316 µM); 89.7% and 103% and 117% (compound 0.1 µM); 97.9% and 120% and 108% (compound 0.316 µM); 98% and 95% and 112% (compound 1 µM); 77% and 103% and 69.6% (compound 3.16 µM); 48.4% and 63.8% and 49.9% (compound 10 µM). In addition, the IC50 (curve of compound) is 9370 nM and > 10000 nM.
Consider `O=C(Nc1ccc(O)c(NS(=O)(=O)c2ccc(F)cc2)c1)c1ccc(-c2ccccc2)cc1`, for which the viability, T/C by setting is: (compound 0.0316 µM) 108% and 109% and 99.2%; (compound 0.1 µM) 95.9% and 81.3% and 96.8%; (compound 0.316 µM) 103% and 90% and 102%; (compound 1 µM) 93.1% and 95.4% and 95.7%; (compound 3.16 µM) 114% and 98.8% and 102%; (compound 10 µM) 98% and 116% and 94.2%. The IC50 (curve of compound) was over 10000 nM.
On to `COc1cccc2c1C(=O)c1c(O)c3c(c(O)c1C2=O)CC(O)(C(=O)CO)CC3OC1CC(N)C(O)C(C)O1` (stereo unspecified), for which the viability, T/C was 109% and 154% and 91.8% (compound 0.0316 µM); 56.6% and 106% and 42.8% (compound 0.1 µM); 0.64% and 1.27% and 0.32% (compound 1 µM); 0.26% and 1.06% and 0.23% (compound 3.16 µM); 0.49% and 1.07% and 0.37% (compound 10 µM). Besides, the IC50 (curve of compound) was 118 nM and 250 nM and 84.5 nM.
With `O=C(c1cc(Cc2n[nH]c(=O)c3ccccc23)ccc1F)N1CCN(C(=O)C2CC2)CC1`, the viability, T/C runs as follows: (compound 0.0316 µM) 92.4% and 106% and 120%; (compound 0.1 µM) 98.8% and 100% and 84.5%; (compound 0.316 µM) 103% and 102% and 101%; (compound 1 µM) 107% and 106% and 104%; (compound 3.16 µM) 110% and 111% and 128%; (compound 10 µM) 79.3% and 62% and 111%. For the same compound, the IC50 (curve of compound) is over 10000 nM.
With `C=CC(=O)N1CCN(c2nc(=O)n(-c3c(C)ccnc3C(C)C)c3nc(-c4c(O)cccc4F)c(F)cc23)C(C)C1` (stereo unspecified), the viability, T/C is, setting by setting: (compound 0.0316 µM) 99.7% and 104% and 101%; (compound 0.1 µM) 93.3% and 94.9% and 105%; (compound 0.316 µM) 97.6% and 89.5% and 103%; (compound 1 µM) 96.6% and 85.6% and 99%; (compound 3.16 µM) 101% and 104% and 109%; (compound 10 µM) 103% and 95% and 93.3%. The IC50 (curve of compound) was over 10000 nM.
`COC1C(OC(N)=O)C(O)C(Oc2ccc3c(O)c(NC(=O)c4ccc(O)c(CC=C(C)C)c4)c(=O)oc3c2C)OC1(C)C` (stereo unspecified): the viability, T/C is 99.1% [middle of 13 runs] (compound 0.0316 µM); 97.7% [middle of 13 runs] (compound 0.1 µM); 97.7% [middle of 13 runs] (compound 0.316 µM); 103% [middle of 13 runs] (compound 3.16 µM); 92.6% [middle of 13 runs] (compound 10 µM). The half-inhibitory concentration (IC50) (compound alone, run of 10/31/2023) was over 10000 nM.
